Data published in patent US10047096B2, “Substituted pyridobenzodiazepinone-derivatives and use thereof” (Bayer Pharma Aktiengesellschaft, priority 2014, dated 2018).

Target: human PDGFRβ (Homo sapiens (Human), UniProt P09619)
Test: PDGFRβ kinase assay (PDGFRβ-HTRF)
Assay type: biochemical
Conditions: 10 μM ATP; some mean values from multiple determinations
Method in brief: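 GST-fused human PDGFRβ fragment (R561-L1106) from Sf9 cells was preincubated 15 min with compound in 50 mM HEPES pH 7.5, 10 mM MgCl2, 2.5 mM DTT, 0.01% Triton X-100; substrate was biotinylated poly-Glu,Tyr (4:1).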

Sequence of human PDGFRβ (P09619 561-1106): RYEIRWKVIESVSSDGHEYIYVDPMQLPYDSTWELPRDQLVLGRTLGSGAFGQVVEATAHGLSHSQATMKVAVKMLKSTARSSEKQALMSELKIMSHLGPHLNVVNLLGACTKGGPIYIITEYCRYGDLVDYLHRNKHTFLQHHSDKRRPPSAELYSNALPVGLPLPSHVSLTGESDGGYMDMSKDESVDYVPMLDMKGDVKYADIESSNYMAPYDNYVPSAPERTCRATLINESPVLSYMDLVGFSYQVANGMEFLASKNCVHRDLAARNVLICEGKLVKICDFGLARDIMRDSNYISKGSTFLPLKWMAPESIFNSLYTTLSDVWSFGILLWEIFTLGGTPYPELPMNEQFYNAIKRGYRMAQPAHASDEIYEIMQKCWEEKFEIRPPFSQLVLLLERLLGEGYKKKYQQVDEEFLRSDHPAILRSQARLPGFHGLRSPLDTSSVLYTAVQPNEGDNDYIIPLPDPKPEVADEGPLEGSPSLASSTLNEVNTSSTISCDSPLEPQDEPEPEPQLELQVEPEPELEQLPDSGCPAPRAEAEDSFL

Compound | IC50 [nM]
Cc1ccc(O)cc1Nc1ccnc2c1C(=O)Nc1cc(CNCCN(C)C)ccc1N2 [Example 156] | 3.31
Cc1cc(F)c(Nc2ccnc3c2C(=O)Nc2cc(CN4CCN(C)CC4)ccc2N3)cc1O [Example 46, 4-[(2-Fluoro-5-hydroxy-4-methylphenyl)amino]-8-[(4-methylpiperazin-1-yl)methyl]-6,11-dihydro-5H-pyrido[2,3-b][1,5]benzodiazepin-5-one] | 1.52
Cc1ccc(O)cc1Nc1ccnc2c1C(=O)Nc1cc(CNCC(F)(F)F)ccc1N2 [Example 14, 4-[(5-Hydroxy-2-methylphenyl)amino]-8-{[(2,2,2-trifluoroethyl)amino]methyl}-6,11-dihydro-5H-pyrido[2,3-b][1,5]benzodiazepin-5-one] | 9.14
N#Cc1ccc2c(c1)NC(=O)c1c(Nc3ccc(NS(=O)(=O)c4ccccc4)c(O)c3)ccnc1N2 [Example 6, N-{4-[(8-Cyano-5-oxo-6,11-dihydro-5H-pyrido[2,3-b][1,5]benzodiazepin-4-yl)amino]-2-hydroxyphenyl}benzenesulphonamide] | 689
Cc1ccc(O)cc1Nc1ccnc2c1C(=O)Nc1cc(CNCCN3CCN(C)CC3)ccc1N2 [Example 109] | 3.55
Cc1ccc(O)cc1Nc1ccnc2c1C(=O)Nc1cc(CNCCC(F)(F)F)ccc1N2 [Example 115] | 3.93
Cc1ccc(O)cc1Nc1ccnc2c1C(=O)Nc1cc(CNCc3cccc(F)c3F)ccc1N2 [Example 94] | 3.52
Cc1cc(F)c(Nc2ccnc3c2C(=O)Nc2cc(CN(C)CCCO)ccc2N3)cc1O [Example 221, 4-[(2-Fluoro-5-hydroxy-4-methylphenyl)amino]-8-{[(3-hydroxypropyl)(methyl)amino]methyl}-6,11-dihydro-5H-pyrido[2,3-b][1,5]benzodiazepin-5-one] | 1.74
Cc1ccc(O)cc1Nc1ccnc2c1C(=O)Nc1cc(CN3CCN(CCO)CC3)ccc1N2 [Example 44, 8-{[4-(2-Hydroxyethyl)piperazin-1-yl]methyl}-4-[(5-hydroxy-2-methylphenyl)amino]-6,11-dihydro-5H-pyrido[2,3-b][1,5]benzodiazepin-5-one] | 19.8
N#Cc1ccc2c(c1)NC(=O)c1c(Nc3cc(O)ccc3F)ccnc1N2 [Example 13, 4-[(2-Fluoro-5-hydroxyphenyl)amino]-5-oxo-6,11-dihydro-5H-pyrido[2,3-b][1,5]benzodiazepine-8-carbonitrile] | 21.9
Cc1ccc(O)cc1Nc1ccnc2c1C(=O)Nc1cc(CNCCN3CCOCC3)ccc1N2 [Example 18, 4-[(5-Hydroxy-2-methylphenyl)amino]-8-({[2-(morpholin-4-yl)ethyl]amino}methyl)-6,11-dihydro-5H-pyrido[2,3-b][1,5]benzodiazepin-5-one] | 5.19
Cc1cc(F)c(Nc2ccnc3c2C(=O)Nc2cc(CN4CCC[C@H](N)C4)ccc2N3)cc1O [Example 219, 8-{[(3S)-3-Aminopiperidin-1-yl]methyl}-4-[(2-fluoro-5-hydroxy-4-methylphenyl)amino]-6,11-dihydro-5H-pyrido[2,3-b][1,5]benzodiazepin-5-one] | 1.48
Cc1cc(F)c(Nc2ccnc3c2C(=O)Nc2cc(C(=O)N[C@H]4CC[C@H](O)CC4)ccc2N3)cc1O [Example 180, 4-[(2-Fluoro-5-hydroxy-4-methylphenyl)amino]-N-(trans-4-hydroxycyclohexyl)-5-oxo-6,11-dihydro-5H-pyrido[2,3-b][1,5]benzodiazepine-8-carboxamide] | 2.43
Cc1cc(F)c(Nc2ccnc3c2C(=O)Nc2cc(CN)ccc2N3)cc1O [Example 87, 8-(Aminomethyl)-4-[(2-fluoro-5-hydroxy-4-methylphenyl)amino]-6,11-dihydro-5H-pyrido[2,3-b][1,5]benzodiazepin-5-one] | 1.41
Cc1cc(F)c(Nc2ccnc3c2C(=O)Nc2cc(C(=O)N4CCOCC4)ccc2N3)cc1O [Example 85, 4-[(2-Fluoro-5-hydroxy-4-methylphenyl)amino]-8-(morpholin-4-ylcarbonyl)-6,11-dihydro-5H-pyrido[2,3-b][1,5]benzodiazepin-5-one] | 13.9
Cc1cc(F)c(Nc2ccnc3c2C(=O)Nc2cc(C(=O)NC4CCCC(O)C4)ccc2N3)cc1O (centres unmarked) [Example 81, 4-[(2-Fluoro-5-hydroxy-4-methylphenyl)amino]-N-(3-hydroxycyclohexyl)-5-oxo-6,11-dihydro-5H-pyrido[2,3-b][1,5]benzodiazepine-8-carboxamide] | 1.31

Results, then the compound that gave them:

IC50 [nM] | Compound
1.56 | Cc1cc(F)c(Nc2ccnc3c2C(=O)Nc2cc(CN[C@H]4C[C@H](C(=O)O)C4)ccc2N3)cc1O [Example 195, trans-3-[({4-[(2-Fluoro-5-hydroxy-4-methylphenyl)amino]-5-oxo-6,11-dihydro-5H-pyrido[2,3-b][1,5]benzodiazepin-8-yl}methyl)amino]cyclobutanecarboxylic acid]
1.66 | Cc1ccc(O)cc1Nc1ccnc2c1C(=O)Nc1cc(CNC(C)C3CC=CCC3)ccc1N2 (centres unmarked) [Example 100]
1.86 | CCN(CC)Cc1ccc2c(c1)NC(=O)c1c(Nc3cc(O)ccc3C)ccnc1N2 [Example 39, 8-[(Diethylamino)methyl]-4-[(5-hydroxy-2-methylphenyl)amino]-6,11-dihydro-5H-pyrido[2,3-b][1,5]benzodiazepin-5-one]
1.61 | CCOC(=O)[C@H]1C[C@H](NCc2ccc3c(c2)NC(=O)c2c(Nc4cc(O)c(C)cc4F)ccnc2N3)C1 [Example 192, trans-Ethyl 3-[({4-[(2-fluoro-5-hydroxy-4-methylphenyl)amino]-5-oxo-6,11-dihydro-5H-pyrido[2,3-b][1,5]benzodiazepin-8-yl}methyl)amino]cyclobutanecarboxylate]
14.1 | Cc1ccc(O)cc1Nc1ccnc2c1C(=O)Nc1cc(C(=O)NCc3cccc(Cl)c3)ccc1N2 [Example 225, N-(3-Chlorobenzyl)-4-[(5-hydroxy-2-methylphenyl)amino]-5-oxo-6,11-dihydro-5H-pyrido[2,3-b][1,5]benzodiazepine-8-carboxamide]
2.15 | Cc1cc(F)c(Nc2ccnc3c2C(=O)Nc2cc(CN4CC[C@H](N(C)C)C4)ccc2N3)cc1O [Example 220, 8-{[(3S)-3-(Dimethylamino)pyrrolidin-1-yl]methyl}-4-[(2-fluoro-5-hydroxy-4-methylphenyl)amino]-6,11-dihydro-5H-pyrido[2,3-b][1,5]benzodiazepin-5-one]
5.74 | Cc1ccc(O)cc1Nc1ccnc2c1C(=O)Nc1cc(CNCC(C)N3CCOCC3)ccc1N2 (centres unmarked) [Example 135]
1.35 | Cc1cc(F)c(Nc2ccnc3c2C(=O)Nc2cc(CN(C)C[C@@H](C)O)ccc2N3)cc1O [Example 201, 4-[(2-Fluoro-5-hydroxy-4-methylphenyl)amino]-8-({[(2R)-2-hydroxypropyl](methyl)amino}methyl)-6,11-dihydro-5H-pyrido[2,3-b][1,5]benzodiazepin-5-one]
1.39 | Cc1cc(F)c(Nc2ccnc3c2C(=O)Nc2cc(CN4CCCC(O)CC4)ccc2N3)cc1O (racemic) [Example 62, rac-4-[(2-Fluoro-5-hydroxy-4-methylphenyl)amino]-8-[(4-hydroxyazepan-1-yl)methyl]-6,11-dihydro-5H-pyrido[2,3-b][1,5]benzodiazepin-5-one]
2.3 | Cc1ccc(O)cc1Nc1ccnc2c1C(=O)Nc1cc(CN3CCN(C)CC3)ccc1N2 [Example 43, 4-[(5-Hydroxy-2-methylphenyl)amino]-8-[(4-methylpiperazin-1-yl)methyl]-6,11-dihydro-5H-pyrido[2,3-b][1,5]benzodiazepin-5-one]
1.01 | Cc1cc(F)c(Nc2ccnc3c2C(=O)Nc2cc(CNC(C)C)ccc2N3)cc1O [Example 48, 4-[(2-Fluoro-5-hydroxy-4-methylphenyl)amino]-8-[(isopropylamino)methyl]-6,11-dihydro-5H-pyrido[2,3-b][1,5]benzodiazepin-5-one]
14.6 | CCN(CC)C(=O)c1ccc2c(c1)NC(=O)c1c(Nc3cc(O)c(C)cc3F)ccnc1N2 [Example 84, N,N-Diethyl-4-[(2-fluoro-5-hydroxy-4-methylphenyl)amino]-5-oxo-6,11-dihydro-5H-pyrido[2,3-b][1,5]benzodiazepine-8-carboxamide]
4.41 | Cc1cc(F)c(Nc2ccnc3c2C(=O)Nc2cc(CN[C@@H](CO)C(N)=O)ccc2N3)cc1O [Example 173, N^2-({4-[(2-Fluoro-5-hydroxy-4-methylphenyl)amino]-5-oxo-6,11-dihydro-5H-pyrido[2,3-b][1,5]benzodiazepin-8-yl}methyl)-L-serinamide]
0.829 | Cc1cc(F)c(Nc2ccnc3c2C(=O)Nc2cc(CN4CCC[C@@H](N)C4)ccc2N3)cc1O [Example 212, 8-{[(3R)-3-Aminopiperidin-1-yl]methyl}-4-[(2-fluoro-5-hydroxy-4-methylphenyl)amino]-6,11-dihydro-5H-pyrido[2,3-b][1,5]benzodiazepin-5-one]
14.8 | Cc1cc(F)c(Nc2ccnc3c2C(=O)Nc2cc(C(=O)N4CCC(O)CC4)ccc2N3)cc1O [Example 178, 4-[(2-Fluoro-5-hydroxy-4-methylphenyl)amino]-8-[(4-hydroxypiperidin-1-yl)carbonyl]-6,11-dihydro-5H-pyrido[2,3-b][1,5]benzodiazepin-5-one]
1.62 | Cc1cc(F)c(Nc2ccnc3c2C(=O)Nc2cc(CN[C@@H](CO)Cc4cnc[nH]4)ccc2N3)cc1O [Example 184, 4-[(2-Fluoro-5-hydroxy-4-methylphenyl)amino]-8-({[(2R)-1-hydroxy-3-(1H-imidazol-5-yl)propan-2-yl]amino}methyl)-6,11-dihydro-5H-pyrido[2,3-b][1,5]benzodiazepin-5-one]
4.98 | CCC(CC)CNCc1ccc2c(c1)NC(=O)c1c(Nc3cc(O)ccc3C)ccnc1N2 [Example 93]
2.34 | CCN(CC)CC(C)NCc1ccc2c(c1)NC(=O)c1c(Nc3cc(O)ccc3C)ccnc1N2 (centres unmarked) [Example 112]
352 | CCOC(=O)Nc1ccc(Nc2ccnc3c2C(=O)Nc2cc(C#N)ccc2N3)cc1O [Example 4, Ethyl {4-[(8-cyano-5-oxo-6,11-dihydro-5H-pyrido[2,3-b][1,5]benzodiazepin-4-yl)amino]-2-hydroxyphenyl}carbamate]
